Data set [1] has as its system Sciatic Nerve/Tibialis Muscle Preparation. The data set is described as follows: Anesthetized rabbit sciatic nerve/tibialis muscle preparation. Type of data set: in vivo. Particulars: rabbits.
Experimental: Anesthesized Rat and Rabbit Sciatic Nerve/Tibialis Muscle Preparation
Anesthesia was produced in rats by ip injections of 30 mg/kg of pentobarbital and in rabbits by iv injections of 1 g/kg of urethane. Electric stimulation of the periphery of the sciatic nerve (5-10 V, 0.5 ms, 1 c/10 s) caused tibialis contraction which was recorded on smoked paper.
The test system of data set [2] is dogs. The data set is described as follows: Subacute toxicity in dogs. Type of data set: in vivo, dog. From the text: Rabbits and dogs: there were 20 rabbits divided into four groups. […] The control group was given im injections of distilled water. […] When the time arrived, the rabbits and dogs were dissected. The routine blood tests glutamic-pyruvic transaminase, zinc turbidity, urea nitrogen and creatinine were all normal. […] The stimulation of the latter was even more outstanding.

Data set [3] has as its system Mice. Particulars: mouse, in vivo.

The text below walks through data of patent US5177082A, “Huperzines and analogs” (priority 1990, dated 1993).

On to `C/C=C1\[C@H]2C=C(C)C[C@]1(N)c1ccc(=O)[nH]c1C2` [Huperzine A, (5R, 9R, 11E)-5-amino-11-ethylidene-5,6,9,10-tetrahydro-7-methyl-5,9-methanocycloocta[b]pyridin-2(1H)-one], for which the minimal effective dose in data set [1] (Oryctolagus cuniculus, iv, read-out: Lowest Effective Dosage for Enhancing Muscle Contraction) came out at 0.03 mg/kg. Also, in data set [1] (galanthamine = 1.0), the “Strength of Effect” value is 16.6. Further, the “effect on electrically stimulated muscle contraction” value in data set [1] (iv (Huperzine A 30 μg/kg)) is on record as “enhancement of the amplitude of the electrically stimulated muscle contraction”. Besides, the “Strength of Effect” value in data set [1] (physostigmine = 1.0) came to 4. In data set [2] (dogs), the “microscopic examination, heart” value is “light fat infiltration”; the “routine blood tests, glutamic-pyruvic transaminase, zinc turbidity, urea nitrogen and creatinine” value is listed as “all normal”. Also, the symptoms result in data set [2] (dogs, 0.6 mg/kg im, 180 days) is “noticeable whole body muscle fiber twitching”. For the same molecule, the ECG entry in data set [2] (dogs, im 180 days) is on record as “no drug induced abnormalities”. The “pathological changes of internal organs” value in data set [2] (dogs, six months, 90 times (MG) / 750 times (senile dementia) clinical dosage) is listed as “no noticeable pathological changes of internal organs were observed”. In addition, in data set [2] (dogs, small dosages (0.3 mg/kg im), 180 days), the abnormalities result was “No abnormalities were observed”. Further, in data set [2] (each dosage group of dogs), the “microscopic examination, cerebral cortex” value was “cerebral spongiocyte growth and myophagia”. Besides, in data set [3], the “Toxic Strength” value amounted to 1.00; the “symptoms after single toxic dose” value was “typical symptoms of cholinesterase inhibitor poisoning, such as whole body muscle fiber twitching, drooling, tears, increase bronchial secretions and incontinence of feces and urine”.
